Values of other authors in publication PMC4284021 (The Journal of Pharmacy and Pharmacology, 2014).

How the values were obtained:
[1] = tested on: patients; settings: cited from earlier work
[2] = tested on: CYP11B1 (steroid 11 β-hydroxylase) and CYP11B2 (aldosterone synthase); settings: branched DNA analysis; cited from earlier work
[3] = tested on: patients; settings: cited from earlier work; remark: listed apart in the source
[4] = tested on: patients; settings: cited from earlier work; remark: listed apart in the source
[5] = tested on: CETP; settings: cited from earlier work

**Q.** With `CCC(CC)CC1(C(=O)Nc2ccccc2SC(=O)C(C)C)CCCCC1` [dalcetrapib] as the molecule, how does the “mean systolic blood pressure higher than in the placebo group” value [1] read?
**A.** approximately 0.6 mmHg

**Q.** What does the source list for `CCOC(=O)N1c2ccc(C(F)(F)F)cc2[C@@H](N(Cc2cc(C(F)(F)F)cc(C(F)(F)F)c2)C(=O)OC)C[C@H]1CC` [torcetrapib]?
**A.** expression of genes regulating CYP11B1 and CYP11B2 [2]: induced expression; blood pressure and aldosterone levels [3]: increases in blood pressure and aldosterone levels; mortality and CV events [3]: excess risk

**Q.** What does the source list for `COc1cc(F)c(C(C)C)cc1-c1ccc(C(F)(F)F)cc1CN1C(=O)O[C@H](c2cc(C(F)(F)F)cc(C(F)(F)F)c2)[C@@H]1C` [anacetrapib]?
**A.** plasma concentrations after cessation of treatment ([4]; 12 weeks after cessation): significant plasma concentrations; changes in blood pressure or electrolyte or aldosterone levels ([4]; through 76 weeks): no changes were noted; time of peak CETP inhibition after dosing [5]: 4 h
